According to US5061626A, “Antigenic anarogues of platelet activating factor” (University of Sydney, priority 1986, dated 1991):

How the values were obtained:
PAF-acetylhydrolase [1] = test: Determination of PAF-acetylhydrolase activity in diluted human serum (remaining PAF read by platelet aggregation); assay type: biochemical; conditions: human sera diluted 1 in 100 with PBS, 27 hours at 25° C.
Description: (§1) Sera were diluted 1 in 100 in either PBS or 0.1% "Tween" in PBS (v/v). Diluted acid-treated sera were prepared by mixing sera (1 vol.) with 0.1M citrate buffer pH 3.0 (2 vol.), and then 15 minutes later with PBS ([…].).
(§2) The solution (50μl) was then tested for platelet aggregation activity at 37° C. in a Payton dual channel aggregometer using human platelet-rich plasma (500 μl).

PAF-acetylhydrolase [2] = test: Determination of PAF-acetylhydrolase activity in diluted rabbit serum (remaining PAF read by platelet aggregation); assay type: biochemical; conditions: rabbit sera diluted 1 in 100 with PBS, 27 hours at 25° C.
Description: as §1, §2

PAF-antibodies = test: Competition assay of test substance against ^3 H-PAF for binding to PAF-antibodies; design: species or system rabbit; conditions: ^3 H-PAF 22,676 cpm
Description: The resulting mixture was centrifuged, washed twice with phosphate buffered saline containing 0.1% "Tween" 20, centrifuged and the sediment transferred in water (200 μl) to the liquid scintillant "Aquasol" (3 ml) and counted in a liquid scintillation counter.

## 1-O-alkyl-2-O-acetyl-sn-glycero-3-phosphocholine [PAF]
PAF-acetylhydrolase [1]
  stability of PAF in serum: destroyed
PAF-acetylhydrolase [2]
  stability of PAF in serum: destroyed
PAF-antibodies; test substance 0.5 ng
  ASSAY COUNT: 2,561 cpm
  ASSAY/CONTROL: 95.2%
PAF-antibodies; test substance 5 ng
  ASSAY COUNT: 2,316 cpm
  ASSAY/CONTROL: 85.7%
PAF-antibodies; test substance 50 ng
  ASSAY COUNT: 1,602 cpm
  ASSAY/CONTROL: 57.8%
PAF-antibodies; test substance 500 ng
  ASSAY COUNT: 598 cpm
  ASSAY/CONTROL: 18.6%
PAF-antibodies; test substance 5,000 ng
  ASSAY COUNT: 228 cpm
  ASSAY/CONTROL: 4.1%

## CCCCCCCCCCCCCCCCOC[C@@H](O)COP(=O)([O-])OCC[N+](C)(C)C [lyso-PAF]
PAF-antibodies; test substance 580 ng
  ASSAY COUNT: 2,744 cpm
PAF-antibodies; test substance 5,800 ng
  ASSAY COUNT: 2,746 cpm

## lecithin
PAF-antibodies; test substance 500 ng
  ASSAY COUNT: 2,545 cpm
  ASSAY/CONTROL: 99.6%
PAF-antibodies; test substance 5,000 ng
  ASSAY COUNT: 2,994 cpm

## lyso-lecithin
PAF-antibodies; test substance 500 ng
  ASSAY COUNT: 2,668 cpm
  ASSAY/CONTROL: 99.4%
PAF-antibodies; test substance 5,000 ng
  ASSAY COUNT: 2,658 cpm
  ASSAY/CONTROL: 99.0%
